Laboratory results as given in patent US9944607B2, “Thiohydantoin derivatives and uses thereof” (Whitehead Institute for Biomedical Research, priority 2012, dated 2018).
Values after ≈ are worked out from the molar mass of the structure shown. Like-named read-outs stand apart in the source and are kept apart here.

Key:
Candida albicans CaCi-2 = assay: Primary assay: C. albicans CaCi-2 growth inhibition (Alamar Blue); type: cell-based; settings: for Growth Inhibition Activity, IC50 (μM), C. albicans (n = 3) CaCi-2 / IC50: 48 hours, tested up to 26 μM, n = 3; for IC50: read-out: Growth Inhibition Activity, IC50 (μM), C. albicans (n = 3) CaCi-2; for Drop in activity / potency relative to hit CID3889161: C. albicans growth inhibition; for Activity against C. albicans: CaCi-2, or both test strains (CaCi-2, CaCi-17) where the sentence names none
[1] = Solubility in PBS pH 7.4 with 1% DMSO; settings: for solubility at 24 h: phosphate buffered saline with 1% DMSO, pH 7.4, aqueous buffer, kinetic from dmso stock
Procedure: Solubility was determined in phosphate buffered saline (PBS) pH 7.4 with 1% DMSO. Each compound was prepared in duplicate at 100 μM in both 100% DMSO and PBS with 1% DMSO. Compounds were allowed to equilibrate at room temperature with a 250 rpm orbital shake for 24 hours. After equilibration, samples were analyzed by UPLC-MS (Waters, Milford, Mass.) with compounds detected by SIR detection on a single quadrupole mass spectrometer. The DMSO samples were used to create a two-point calibration curve to which the response in PBS was fit.

Candida albicans CaCi-17 = assay: Primary assay: C. albicans CaCi-17 growth inhibition (Alamar Blue); type: cell-based; settings: for Growth Inhibition Activity, IC50 (μM), C. albicans (n = 3) CaCi-17 / IC50: 48 hours, tested up to 26 μM, n = 3; for IC50: read-out: Growth Inhibition Activity, IC50 (μM), C. albicans (n = 3) CaCi-17
[2] = system: NIH-3T3 mammalian fibroblasts; assay: Counterscreen mammalian cell toxicity assay (Alamar Blue); type: cell-based, murine; settings: n = 1, 48 hours, tested up to 26 μM
Procedure: Quiescent murine fibroblasts were subjected to incubation with compounds of interest for 48 hours. Subsequent cell viability was determined via measuring Alamar Blue fluorescence.
Procedures • After overnight culture, pin compounds into wells at 100 nL/well using the CyBio CyBi-Well pinning instrument. • Return the plates to the tissue culture incubator and incubate the culture for an additional 48 hours at 37° C. under 5% CO2. • At the completion of this incubation, add Alamar Blue solution diluted 1:40 in PBS to each well (10 μL/well) to achieve a final dilution of 1:200. • Incubate the plates for an additional 2-3 hours at 37° C. under 5% CO2. • Read the Relative Fluorescence Intensity (RFU) of wells on a standard plate reader as a measure of relative cell growth. […] 4.4.

[3] = Table 4, PBS pH 7.4 with 1% DMSO, 24 hours, room temperature
[4] = read-out: Growth Inhibition Activity, IC50 (μM), 3T3 Fibroblasts (n = 1), Table 4
[5] = Mus musculus, NIH3T3, read-out: Growth Inhibition Activity, IC50 (μM), 3T3 Fibroblasts (n = 1), Table 7

Cc1ccc(N2C(=O)N(C)C(=O)C23CCCCC3)cc1 [compound 56604845]
Growth Inhibition Activity, IC50 (μM), C. albicans (n = 3) CaCi-2 (Candida albicans CaCi-2; Table 6): inactive | solubility at 24 h [1]: 100 µM (≈ 27.2 µg/mL) | Growth Inhibition Activity, IC50 (μM), C. albicans (n = 3) CaCi-17 (Candida albicans CaCi-17; Table 6): inactive | Growth Inhibition Activity, IC50 (μM), 3T3 Fibroblasts (n = 1) ([2]; Table 6): Inactive

O=C1NC(=S)N(c2ccccc2)C12CCCCC2 [compound 823120]
Growth Inhibition Activity, IC50 (μM), C. albicans (n = 3) CaCi-2 (Candida albicans CaCi-2; Table 7): inactive | solubility at 24 h [1]: 79 µM (≈ 20.6 µg/mL) | Growth Inhibition Activity, IC50 (μM), C. albicans (n = 3) CaCi-17 (Candida albicans CaCi-17; Table 7): inactive | Growth Inhibition Activity, IC50 (μM), 3T3 Fibroblasts (n = 1) ([2]; Table 7): Inactive

CCCC(=O)N1C(=O)C2(CCCCC2)N(c2ccc(C)cc2)C1=S [compound 56604869]
Growth Inhibition Activity, IC50 (μM), C. albicans (n = 3) CaCi-2 (Candida albicans CaCi-2; Table 3): inactive | PBS Solubility ([1]; pH 7.4): 2.2 µM | Growth Inhibition Activity, IC50 (μM), C. albicans (n = 3) CaCi-17 (Candida albicans CaCi-17; Table 3): inactive | IC50 ([2]; read-out: Growth Inhibition Activity, IC50 (μM), 3T3 Fibroblasts (n = 1), Table 3): 18.8 µM

CCOC(=O)N1C(=O)C2(CCCCC2)N(C(C)C)C1=S [compound 56604896]
Growth Inhibition Activity, IC50 (μM), C. albicans (n = 3) CaCi-2 (Candida albicans CaCi-2; Table 4): inactive | PBS Solubility [1, 3]: 12 µM | Growth Inhibition Activity, IC50 (μM), C. albicans (n = 3) CaCi-17 (Candida albicans CaCi-17; Table 4): inactive | Growth Inhibition Activity, IC50 (μM), 3T3 Fibroblasts (n = 1) ([2]; Table 4): Inactive

CCOC(=O)N1C(=O)C2(CCCCC2)N(c2ccc(C(F)(F)F)cc2)C1=S [compound 56604813]
IC50 (Candida albicans CaCi-2; Table 4): 0.8 µM | PBS Solubility ([1]; pH 7.4): <1.0 µM | IC50 (Candida albicans CaCi-17; Table 4): 16.2 µM | IC50 [2, 4]: 12.5 µM

Cc1ccc(N2C(=S)NC(=O)C23CCCC3)cc1 [compound 56604876]
Growth Inhibition Activity, IC50 (μM), C. albicans (n = 3) CaCi-2 (Candida albicans CaCi-2; Table 7): inactive | solubility at 24 h [1]: 72 µM (≈ 18.7 µg/mL) | Growth Inhibition Activity, IC50 (μM), C. albicans (n = 3) CaCi-17 (Candida albicans CaCi-17; Table 7): inactive | IC50 [2, 5]: 32.6 µM

CCOC(=O)N1C(=O)C2(CCOCC2)N(c2ccc(C)cc2)C1=S [CID 56604818]
Drop in activity / potency relative to hit CID3889161 (Candida albicans CaCi-2): 100 fold

Cc1ccc(N2CC(=O)NC2=S)cc1 [compound 56604844]
Growth Inhibition Activity, IC50 (μM), C. albicans (n = 3) CaCi-2 (Candida albicans CaCi-2; Table 7): inactive | solubility at 24 h [1]: < 1 µM | Growth Inhibition Activity, IC50 (μM), C. albicans (n = 3) CaCi-17 (Candida albicans CaCi-17; Table 7): inactive | IC50 [2, 5]: 20.7 µM

CCOC(=O)N1C(=O)C2(CCCCC2)N(c2ccc(CC)cc2)C1=S [compound 56604836]
IC50 (Candida albicans CaCi-2; Table 4): 1.9 µM | PBS Solubility [1, 3]: <1.0 µM | Growth Inhibition Activity, IC50 (μM), C. albicans (n = 3) CaCi-17 (Candida albicans CaCi-17; Table 4): inactive | IC50 [2, 4]: 19.5 µM

Cc1ccc(N2C(=S)NC(=O)C23CCCCC3)cc1 [CID 56604892]
Activity against C. albicans (Candida albicans CaCi-2): failed to inhibit C. albicans growth

CCOC(=O)N1C(=O)C2(CCCCC2)N(c2ccc(C(C)(C)C)cc2)C1=S [compound 56604837]
Growth Inhibition Activity, IC50 (μM), C. albicans (n = 3) CaCi-2 (Candida albicans CaCi-2; Table 4): inactive | PBS Solubility [1, 3]: <1.0 µM | Growth Inhibition Activity, IC50 (μM), C. albicans (n = 3) CaCi-17 (Candida albicans CaCi-17; Table 4): inactive | IC50 [2, 4]: 16.5 µM

CCCCN1C(=O)N(c2ccc(C)cc2)C2(CCCCC2)C1=O [compound 56604877]
Growth Inhibition Activity, IC50 (μM), C. albicans (n = 3) CaCi-2 (Candida albicans CaCi-2; Table 6): inactive | solubility at 24 h [1]: 64 µM (≈ 20.1 µg/mL) | Growth Inhibition Activity, IC50 (μM), C. albicans (n = 3) CaCi-17 (Candida albicans CaCi-17; Table 6): inactive | Growth Inhibition Activity, IC50 (μM), 3T3 Fibroblasts (n = 1) ([2]; Table 6): Inactive

CCOC(=O)N1C(=S)NC(=O)C12CCCCC2 [compound 56604829]
Growth Inhibition Activity, IC50 (μM), C. albicans (n = 3) CaCi-2 (Candida albicans CaCi-2; Table 7): inactive | solubility at 24 h [1]: > 100 µM | Growth Inhibition Activity, IC50 (μM), C. albicans (n = 3) CaCi-17 (Candida albicans CaCi-17; Table 7): inactive | Growth Inhibition Activity, IC50 (μM), 3T3 Fibroblasts (n = 1) ([2]; Table 7): Inactive

CCOC(=O)N1C(=S)N(c2ccc(C)cc2)C2(CCCCC2)/C1=N/Cc1ccccc1 [compound 56604867]
Growth Inhibition Activity, IC50 (μM), C. albicans (n = 3) CaCi-2 (Candida albicans CaCi-2; Table 6): inactive | solubility at 24 h [1]: 26 µM (≈ 11.3 µg/mL) | Growth Inhibition Activity, IC50 (μM), C. albicans (n = 3) CaCi-17 (Candida albicans CaCi-17; Table 6): inactive | Growth Inhibition Activity, IC50 (μM), 3T3 Fibroblasts (n = 1) ([2]; Table 6): Inactive

Cc1ccc(N2C(=S)N(C(=O)OC(C)C)C(=O)C23CCCCC3)cc1 [compound 56604859]
IC50 (Candida albicans CaCi-2; Table 3): 5.9 µM | PBS Solubility ([1]; pH 7.4): <1.0 µM | Growth Inhibition Activity, IC50 (μM), C. albicans (n = 3) CaCi-17 (Candida albicans CaCi-17; Table 3): inactive | Growth Inhibition Activity, IC50 (μM), 3T3 Fibroblasts (n = 1) ([2]; Table 3): Inactive

CCCc1ccc(N2C(=S)N(C(=O)OCC)C(=O)C23CCCCC3)cc1 [compound 56604858]
IC50 (Candida albicans CaCi-2; Table 4): 6.9 µM | PBS Solubility ([1]; pH 7.4): <1.0 µM | Growth Inhibition Activity, IC50 (μM), C. albicans (n = 3) CaCi-17 (Candida albicans CaCi-17; Table 4): inactive | Growth Inhibition Activity, IC50 (μM), 3T3 Fibroblasts (n = 1) ([2]; Table 4): Inactive

Cc1ccc(N2CC(=O)NC2=O)cc1 [compound 759335]
Growth Inhibition Activity, IC50 (μM), C. albicans (n = 3) CaCi-2 (Candida albicans CaCi-2; Table 7): inactive | solubility at 24 h [1]: > 100 µM | Growth Inhibition Activity, IC50 (μM), C. albicans (n = 3) CaCi-17 (Candida albicans CaCi-17; Table 7): inactive | Growth Inhibition Activity, IC50 (μM), 3T3 Fibroblasts (n = 1) ([2]; Table 7): Inactive

CCCCN1C(=O)N(c2ccc(C)cc2)C2(CCCCC2)C1=S [compound 56604857]
Growth Inhibition Activity, IC50 (μM), C. albicans (n = 3) CaCi-2 (Candida albicans CaCi-2; Table 6): inactive | solubility at 24 h [1]: < 1 µM | Growth Inhibition Activity, IC50 (μM), C. albicans (n = 3) CaCi-17 (Candida albicans CaCi-17; Table 6): inactive | IC50 ([2]; Mus musculus, NIH3T3, read-out: Growth Inhibition Activity, IC50 (μM), 3T3 Fibroblasts (n = 1), Table 6): 20.9 µM

CCOC(=O)N1C(=O)C2(CCOCC2)N(c2ccc(C)cc2)C1=S [compound 56604818]
IC50 (Candida albicans CaCi-2; Table 5): 20.6 µM | PBS Solubility ([1]; pH 7.4): 28.5 µM | Growth Inhibition Activity, IC50 (μM), C. albicans (n = 3) CaCi-17 (Candida albicans CaCi-17; Table 5): inactive | Growth Inhibition Activity, IC50 (μM), 3T3 Fibroblasts (n = 1) ([2]; Table 5): Inactive

CCOC(=O)N1C(=O)C2(CCCC2)N(c2ccc(C)cc2)C1=S [compound 56604843]
IC50 (Candida albicans CaCi-2; Table 5): 9.8 µM | PBS Solubility ([1]; pH 7.4): 9.2 µM | Growth Inhibition Activity, IC50 (μM), C. albicans (n = 3) CaCi-17 (Candida albicans CaCi-17; Table 5): inactive | Growth Inhibition Activity, IC50 (μM), 3T3 Fibroblasts (n = 1) ([2]; Table 5): Inactive

CCOC(=O)N1C(=O)C(C)(C)N(c2ccc(C)cc2)C1=S [compound 56604873]
Growth Inhibition Activity, IC50 (μM), C. albicans (n = 3) CaCi-2 (Candida albicans CaCi-2; Table 5): inactive | Growth Inhibition Activity, IC50 (μM), C. albicans (n = 3) CaCi-17 (Candida albicans CaCi-17; Table 5): inactive | Growth Inhibition Activity, IC50 (μM), 3T3 Fibroblasts (n = 1) ([2]; Table 5): Inactive

Cc1ccc(N2C(=O)NC(=O)C23CCCCC3)cc1 [compound 56604883]
Growth Inhibition Activity, IC50 (μM), C. albicans (n = 3) CaCi-2 (Candida albicans CaCi-2; Table 7): inactive | solubility at 24 h [1]: 14 µM (≈ 3.62 µg/mL) | Growth Inhibition Activity, IC50 (μM), C. albicans (n = 3) CaCi-17 (Candida albicans CaCi-17; Table 7): inactive | Growth Inhibition Activity, IC50 (μM), 3T3 Fibroblasts (n = 1) ([2]; Table 7): Inactive

COC(=O)N1C(=O)C2(CCCCC2)N(c2ccc(C)cc2)C1=S [compound 3951437]
IC50 (Candida albicans CaCi-2; Table 3): 1.9 µM | IC50 (Candida albicans CaCi-17; Table 3): 17.1 µM | Growth Inhibition Activity, IC50 (μM), 3T3 Fibroblasts (n = 1) ([2]; Table 3): Inactive

CCOC(=O)N1C(=O)C2(CCCCC2)N(Cc2ccccc2)C1=S [CID 56604878]
Drop in activity / potency relative to hit CID3889161 (Candida albicans CaCi-2): 10 fold

Cc1ccc(N2C(=S)N(C(=O)Oc3ccccc3)C(=O)C23CCCCC3)cc1 [CID 56604875]
Activity against C. albicans (Candida albicans CaCi-2): no activity | Activity against C. albicans CaCi-17 as worded in the text (Candida albicans CaCi-17): no activity

CCOC(=O)N1C(=S)N(c2ccc(C)cc2)C(=O)C12CCCCC2 [CID 56604852]
Activity against C. albicans (Candida albicans CaCi-2): inactive
